Measured values as given in PMC9828300 (2022).

What was measured:
[1] = tested on: Olig (oligonucleotide fragment of the UCP1 gene promoter; Oligo) (DNA, G4) CGAGGGTGGGTAGGAGGGGACGCGGGGACT; test: UV-vis absorption; conditions: 100 mM KCl; 10 mM Tris-HCl pH 7.4, 25°C; 6 μM DNA, 24 μM berberine; ~45% hypochromicity, 340 to 348 nm
[2] = tested on: Olig (oligonucleotide fragment of the UCP1 gene promoter; Oligo) (DNA, G4) CGAGGGTGGGTAGGAGGGGACGCGGGGACT; test: fluorescence enhancement; conditions: 100 mM KCl; 10 mM Tris-HCl pH 7.4, 25°C; 6 μM DNA, 24 μM berberine; excitation 280 nm
[3] = tested on: Olig (oligonucleotide fragment of the UCP1 gene promoter; Oligo) (DNA, G4) CGAGGGTGGGTAGGAGGGGACGCGGGGACT; test: native gel electrophoresis; conditions: 100 mM KCl; 10 mM Tris-HCl pH 7.4, 4°C overnight; 6 μM DNA, 24 μM berberine; Uni-G4 to Tetra-G4

Measured: binding

COc1ccc2cc3[n+](cc2c1OC)CCc1cc2c(cc1-3)OCO2
yes: [1] | [2] | [3]
